# Test results as given in ChEMBL document CHEMBL4325865, “Optimization of a fragment linking hit toward Dengue and Zika virus NS5 methyltransferases inhibitors” (Eur J Med Chem, 2019).
# pIC50: −log10 of the molar value. Active and inactive are the calls of the source. The calls are words filed in the database; no cut-off is given here.
# How the values were obtained:
# [1] = biological target: Genome polyprotein (Zika virus, UniProt Q32ZE1); test: Inhibition of ZIKV 2'-O-MTase assessed as reduction in [3H]AdoMet transfer on to capped GpppAC4 RNA after 30 mins by microbeta liquid scintillation counting method
# Genome polyprotein (Zika virus, UniProt Q32ZE1), sequence (Q32ZE1 2517-3419 limits assumed): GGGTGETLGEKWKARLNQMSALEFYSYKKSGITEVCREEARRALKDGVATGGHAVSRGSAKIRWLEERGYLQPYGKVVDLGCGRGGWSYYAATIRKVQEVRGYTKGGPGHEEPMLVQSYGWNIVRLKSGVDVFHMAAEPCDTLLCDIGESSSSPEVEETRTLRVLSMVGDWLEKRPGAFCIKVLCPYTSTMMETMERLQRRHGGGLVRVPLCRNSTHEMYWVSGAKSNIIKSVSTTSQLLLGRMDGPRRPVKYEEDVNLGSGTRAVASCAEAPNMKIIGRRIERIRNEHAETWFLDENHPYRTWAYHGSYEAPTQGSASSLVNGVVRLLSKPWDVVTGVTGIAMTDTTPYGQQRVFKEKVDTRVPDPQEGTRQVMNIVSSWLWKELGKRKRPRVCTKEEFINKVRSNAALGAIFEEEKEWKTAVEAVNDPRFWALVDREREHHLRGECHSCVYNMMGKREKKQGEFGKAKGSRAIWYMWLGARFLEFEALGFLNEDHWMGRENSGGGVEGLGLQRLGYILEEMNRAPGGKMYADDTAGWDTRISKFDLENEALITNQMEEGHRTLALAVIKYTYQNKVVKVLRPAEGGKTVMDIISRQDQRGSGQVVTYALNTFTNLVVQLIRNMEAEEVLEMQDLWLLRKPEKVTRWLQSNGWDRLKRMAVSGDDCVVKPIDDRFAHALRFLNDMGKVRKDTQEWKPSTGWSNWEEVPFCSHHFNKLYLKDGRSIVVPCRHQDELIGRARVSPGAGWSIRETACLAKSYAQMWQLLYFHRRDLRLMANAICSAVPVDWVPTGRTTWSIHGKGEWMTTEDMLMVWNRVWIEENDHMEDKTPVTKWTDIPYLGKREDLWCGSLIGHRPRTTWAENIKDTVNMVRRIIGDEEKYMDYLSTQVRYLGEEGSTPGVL
# [2] = biological target: Nonstructural protein 5 (Dengue virus, UniProt V5TFZ2); test: Inhibition of DENV3 2'-O-MTase assessed as reduction in [3H]AdoMet transfer on to capped GpppAC4 RNA after 30 mins by microbeta liquid scintillation counting method; design: species or system dengue virus type 3
# Nonstructural protein 5, sequence (V5TFZ2 whole entry): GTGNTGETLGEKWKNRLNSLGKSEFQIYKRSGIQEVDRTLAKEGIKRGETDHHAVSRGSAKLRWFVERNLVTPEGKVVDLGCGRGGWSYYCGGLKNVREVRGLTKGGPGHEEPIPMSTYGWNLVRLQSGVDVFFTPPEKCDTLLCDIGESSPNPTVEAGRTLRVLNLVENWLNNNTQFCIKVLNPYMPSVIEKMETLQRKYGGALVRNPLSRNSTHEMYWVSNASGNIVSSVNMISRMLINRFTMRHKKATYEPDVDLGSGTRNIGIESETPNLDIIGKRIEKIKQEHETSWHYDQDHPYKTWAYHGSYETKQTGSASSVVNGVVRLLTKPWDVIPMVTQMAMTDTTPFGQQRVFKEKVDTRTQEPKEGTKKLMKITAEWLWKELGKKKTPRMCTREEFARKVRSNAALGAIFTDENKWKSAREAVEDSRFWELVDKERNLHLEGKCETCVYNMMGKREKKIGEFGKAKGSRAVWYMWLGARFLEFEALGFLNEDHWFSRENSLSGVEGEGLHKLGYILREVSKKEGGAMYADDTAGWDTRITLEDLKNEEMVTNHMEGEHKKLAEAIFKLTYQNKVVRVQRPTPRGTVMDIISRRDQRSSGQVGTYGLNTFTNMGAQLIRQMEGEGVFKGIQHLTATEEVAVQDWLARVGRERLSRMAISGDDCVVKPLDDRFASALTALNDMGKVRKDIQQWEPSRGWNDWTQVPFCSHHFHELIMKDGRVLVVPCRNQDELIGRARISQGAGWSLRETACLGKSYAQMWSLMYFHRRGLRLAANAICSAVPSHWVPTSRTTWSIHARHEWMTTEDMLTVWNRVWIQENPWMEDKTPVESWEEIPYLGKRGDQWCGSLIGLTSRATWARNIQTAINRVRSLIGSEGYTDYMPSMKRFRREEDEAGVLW
# [3] = test system: dengue virus type 2; test: Antiviral activity against DENV2 CNR 25679 infected in African green monkey Vero E6 cells assessed as reduction in viral replication up to 20 uM by RT-PCR analysis; assay type: functional, organism-based; details: Vero C1008
# [4] = test system: Vero C1008; test: Cytotoxicity against African green monkey Vero E6 cells up to 100 uM; assay type: cell-based; details: chlorocebus sabaeus
# [5] = test system: Zika virus; test: Antiviral activity against ZIKV H/PF/2013 infected in African green monkey Vero E6 cells assessed as reduction in viral replication up to 20 uM by RT-PCR analysis; assay type: functional, organism-based; details: Vero C1008
# [6] = biological target: Genome polyprotein (West Nile virus, UniProt P06935); test: Inhibition of WNV 2'-O-MTase assessed as reduction in [3H]AdoMet transfer on to capped GpppAC4 RNA after 30 mins by microbeta liquid scintillation counting method
# Genome polyprotein (West Nile virus, UniProt P06935), sequence (P06935 2526-3430 limits assumed): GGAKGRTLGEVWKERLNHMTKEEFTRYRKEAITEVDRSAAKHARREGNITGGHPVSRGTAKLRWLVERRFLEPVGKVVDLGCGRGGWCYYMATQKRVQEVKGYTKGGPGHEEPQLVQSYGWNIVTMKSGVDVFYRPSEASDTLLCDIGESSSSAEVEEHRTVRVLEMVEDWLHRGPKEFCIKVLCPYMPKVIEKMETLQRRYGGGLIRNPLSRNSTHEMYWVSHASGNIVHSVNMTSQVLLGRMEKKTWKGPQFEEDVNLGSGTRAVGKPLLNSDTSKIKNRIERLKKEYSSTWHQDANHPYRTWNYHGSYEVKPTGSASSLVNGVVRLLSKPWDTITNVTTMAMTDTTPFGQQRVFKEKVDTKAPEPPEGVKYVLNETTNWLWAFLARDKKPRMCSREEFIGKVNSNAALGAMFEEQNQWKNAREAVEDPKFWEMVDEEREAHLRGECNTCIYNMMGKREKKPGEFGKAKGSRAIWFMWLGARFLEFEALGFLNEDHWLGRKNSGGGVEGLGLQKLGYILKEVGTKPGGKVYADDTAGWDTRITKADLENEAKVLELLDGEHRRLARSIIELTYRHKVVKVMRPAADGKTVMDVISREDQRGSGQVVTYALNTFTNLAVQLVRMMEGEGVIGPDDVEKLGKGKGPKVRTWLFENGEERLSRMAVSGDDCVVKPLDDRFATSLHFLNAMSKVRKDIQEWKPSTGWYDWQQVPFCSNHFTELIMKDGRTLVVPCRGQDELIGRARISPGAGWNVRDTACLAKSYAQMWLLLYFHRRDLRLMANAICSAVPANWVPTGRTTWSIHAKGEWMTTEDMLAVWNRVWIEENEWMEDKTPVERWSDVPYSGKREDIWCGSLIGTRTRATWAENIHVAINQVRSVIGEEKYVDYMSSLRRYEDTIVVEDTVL
# [7] = Cytotoxicity against African green monkey Vero E6 cells; assay type: cell-based; details: chlorocebus sabaeus, Vero E6 cells (Vero C1008)
Compound,pIC50 [1],pIC50 [2],pIC50 [6],Activity [3],Activity [4],Activity [5],CC50 [7]
Nc1cc(C(F)(F)F)ccc1NC(=O)Nc1ccc(S(=O)(=O)Oc2cccc(CC(=O)Oc3cccc(CC(=O)O)c3)c2)cc1,4.72,4.62,–,inactive,Non-Toxic,inactive,–
O=C(Nc1cccc(S(=O)(=O)NCc2cccc(C(=O)O)c2)c1)Nc1ccc(C(F)(F)F)cc1[N+](=O)[O-],3.87,3.40,–,–,–,–,–
Nc1cc(C(F)(F)F)ccc1NC(=O)Nc1cccc(S(=O)(=O)NCCCC(=O)O)c1,3.88,3.47,–,–,–,–,–
COC(=O)CCCNS(=O)(=O)c1cccc(NC(=O)Nc2ccc(C(F)(F)F)cc2[N+](=O)[O-])c1,3.40,3.40,–,–,–,–,–
CN1CCC(CNS(=O)(=O)c2ccc(NC(=O)Nc3ccc(C(F)(F)F)cc3N)cc2)C1 (stereo not drawn),3.40,3.40,–,–,–,–,–
O=C(Nc1ccc(S(=O)(=O)NCc2cccc(C(=O)O)c2)cc1)Nc1ccc(C(F)(F)F)cc1[N+](=O)[O-],4.08,3.84,–,inactive,–,inactive,70 µM
CN1CCC(CNS(=O)(=O)c2ccc(NC(=O)Nc3ccc(C(F)(F)F)cc3[N+](=O)[O-])cc2)C1 (stereo not drawn),3.40,3.40,–,–,–,–,–
Nc1cc(C(F)(F)F)ccc1NC(=O)Nc1cccc(S(=O)(=O)NCc2cccc(C(=O)O)c2)c1,4.02,3.52,–,–,–,–,–
O=C(O)Cc1ccc(NS(=O)(=O)c2cccc(NC(=O)Nc3ccc(C(F)(F)F)cc3[N+](=O)[O-])c2)cc1,3.73,3.74,–,–,–,–,–
O=C(O)Cc1cccc(OS(=O)(=O)c2ccc(NC(=O)Nc3ccc(C(F)(F)F)cc3[N+](=O)[O-])cc2)c1,4.55,4.59,–,inactive,–,inactive,37.5 µM
Nc1cc(C(F)(F)F)ccc1NC(=O)Nc1ccc(S(=O)(=O)Oc2cccc(CC(=O)O)c2)cc1,3.95,3.56,–,–,–,–,–

# Further lines, with some results ahead:
pIC50 [1],pIC50 [2],pIC50 [6],Compound,Activity [3],Activity [4],Activity [5],CC50 [7]
4.51,3.43,3.52 to 4.29,Nc1cc(Cl)ccc1NC(=O)Nc1ccc(S(=O)(=O)Oc2ccc(C(=O)O)cc2)cc1,–,–,–,–
4.06,3.36,3.52 to 4.29,Nc1cc(Cl)ccc1NC(=O)Nc1ccc(S(=O)(=O)Nc2ccc(C(=O)O)cc2)cc1,–,–,–,–
3.91,3.44,–,Nc1cc(C(F)(F)F)ccc1NC(=O)Nc1cccc(S(=O)(=O)NCc2ccc(C(=O)O)cc2)c1,–,–,–,–
4.17,3.96,3.52 to 4.29,Nc1cc(C(F)(F)F)ccc1NC(=O)Nc1ccc(S(=O)(=O)Nc2ccc(C(=O)O)cc2)cc1,–,–,–,–
4.21,3.76,–,Nc1cc(C(F)(F)F)ccc1NC(=O)Nc1ccc(S(=O)(=O)NCc2cccc(C(=O)O)c2)cc1,inactive,Non-Toxic,inactive,–
4.48,3.43,3.52 to 4.29,Nc1cc(Cl)ccc1NC(=O)Nc1cccc(S(=O)(=O)Oc2ccc(C(=O)O)cc2)c1,–,–,–,–
4.62,4.04,3.52 to 4.29,Nc1cc(C(F)(F)F)ccc1NC(=O)Nc1cccc(S(=O)(=O)Nc2ccc(C(=O)O)cc2)c1,–,–,–,–
3.87,3.84,–,Nc1cc(C(F)(F)F)ccc1NC(=O)Nc1cccc(S(=O)(=O)Nc2ccc(CC(=O)O)cc2)c1,–,–,–,–
3.66,3.34,3.52 to 4.29,Nc1cc(Cl)ccc1NC(=O)Nc1cccc(S(=O)(=O)Nc2ccc(C(=O)O)cc2)c1,–,–,–,–
